Experimental findings from PubChem BioAssay (NCI) are described below.

What all share (assay): NCI-60 cell line screen, 48 h
The test system of assay [1] is HOP-92 NSCLC.
Assay [2] concerns OVCAR-8 ovarian.
Assay [3] relates to SNB-19 CNS.
Assay [4] deals with SK-MEL-5 melanoma.
In assay [5] the test system is HOP-62 NSCLC.
For assay [6], the system named is BT-549 breast.
Assay [7] relates to MOLT-4 leukemia.
In assay [8] the test system is SF-268 CNS.
Assay [9] relates to MALME-3M melanoma.
Assay [10] concerns IGROV1 ovarian.
For assay [11], the system named is SW-620 colon.
For assay [12], the system named is SK-OV-3 ovarian.
In assay [13] the test system is NCI-H226 lung.
In assay [14] the test system is CAKI-1 renal.
In assay [15] the test system is U251 CNS.
Assay [16] has as its system SK-MEL-28 melanoma.
For assay [17], the system named is HL-60(TB) leukemia.
The test system of assay [18] is RPMI-8226 leukemia.
Assay [19] has as its system KM12 colon.

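Grown in 96-well plates, cells were treated for 48 hours with each compound at five concentrations. Insufficient inhibition: endpoint recorded as highest concentration tested. TGI denotes the concentration required for complete inhibition of growth.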

On to `O=C(Cn1c(-c2ccccc2)cc2ccccc21)N1CCCC1`, for which the TGI in assay [1], in assay [2], in [3], in assay [4], in [5] and in assay [6] was more than 100 µM each time. In addition, the TGI in [7], in [8], in assay [9], in assay [10], in assay [11] and in assay [12] was more than 100 µM each time. In assay [13], the TGI was more than 100 µM.

As for `COC1=C(Br)[C@H](O)[C@@]2(C=C1Br)CC(C(=O)NCCCOc1c(Br)cc(C(O)CNC(C)=O)cc1Br)=NO2` (stereo not given in full), the TGI in assay [14], in [2], in assay [3], in assay [4], in assay [5] and in assay [6] was more than 10 µM each time. Further, the TGI in assay [15], in assay [7], in assay [8], in assay [9], in [16] and in assay [10] was more than 10 µM each time. Besides, the TGI in assay [17], in [11], in assay [18], in assay [12], in assay [19] and in assay [13] was more than 10 µM each time.

For the compound `CC(C)[Si]1(C(C)C)OCC2OC3(CO)C(Oc4nc(=O)ccn43)C2O[Si](C(C)C)(C(C)C)O1` (stereo not given), the TGI in assay [14] is 29.4 µM; in [1] it was 32.2 µM; in assay [2] it was 31.8 µM; in [3] it was 32.7 µM; in assay [4], 32.9 µM; in assay [5], 29.2 µM. Besides, the TGI in assay [6] was found to be 24.9 µM; in assay [15] it was 28.1 µM; in [7] it was 24.8 µM; in [8], 35.6 µM; in assay [16] it was 29.3 µM; in [10] it was 33 µM. Moreover, the TGI came out at 27.1 µM in [17]; 34.7 µM in [11]; 23.9 µM in assay [18]; 36.3 µM in [12]; 30.8 µM in [19]; 31 µM in [13].

Regarding `C=CCN(C(=O)CNC(=O)C(F)(F)F)c1cc(OCc2ccccc2)c2c(c1)c(C)cn2S(=O)(=O)c1ccccc1`, the TGI in assay [14], in assay [1], in assay [2], in assay [3], in assay [4] and in assay [5] was more than 100 µM each time. Besides, the TGI in assay [6], in assay [15], in [7], in [8], in assay [9] and in [16] was more than 100 µM throughout. The TGI in [10], in assay [18], in assay [12], in [19] and in [13] was more than 100 µM throughout.

`C=C(Nc1nc2ccc(C)cc2s1)C(=O)C(CC)C(=O)C(CC)CC1C(=O)NC(=O)NC1=O` (stereo not given): the TGI in assay [14], in [1], in [2], in assay [3], in assay [4] and in [5] was more than 100 µM throughout. Also, the TGI in [6], in [15], in assay [7], in [8], in assay [16] and in [10] was more than 100 µM in each case. The TGI in [17], in assay [11], in [12], in [19] and in assay [13] was more than 100 µM each time.

Take `Cn1c2ccccc2c(=O)c2cccc(C(=O)NC(CS)C(=O)O)c21` (stereo not given): the TGI in [14], in assay [2], in assay [3], in assay [4], in assay [5] and in assay [6] was more than 100 µM each time. Also, the TGI in assay [15], in [7], in [8], in assay [9], in assay [16] and in [10] was more than 100 µM each time. For the same compound, the TGI was 38.9 µM in [17]; more than 100 µM in assay [11]; more than 100 µM in [18]; more than 100 µM in assay [12]; more than 100 µM in [19]; more than 100 µM in assay [13].

`CN1C(=O)C2CCCC(=O)N2c2cccnc21` (stereo not given): the TGI in [14], in assay [2], in assay [3], in assay [4], in assay [5] and in assay [6] was more than 100 µM each time. Besides, the TGI in [15], in [7], in assay [8], in assay [9], in assay [16] and in assay [10] was more than 100 µM in each case. For the same compound, the TGI in assay [17], in assay [11], in assay [18], in assay [19] and in assay [13] was more than 100 µM throughout.

In the case of `COC(=O)NC(C(F)(F)F)(C(F)(F)F)P1(=O)OCCCO1`, the TGI in assay [1] is more than 100 µM; in assay [2], 83.3 µM; in assay [3], 78.7 µM; in [4] it was 40.6 µM; in assay [5] it was 58.6 µM; in assay [6] it was 68.3 µM. Besides, the TGI in assay [15] was 29.8 µM; in assay [7] it was more than 100 µM; in assay [8] it was 73.8 µM; in [16], more than 100 µM; in assay [10], 68.8 µM; in assay [17], 51.1 µM. Besides, the TGI in [11] was 82.4 µM; in [18], 48.5 µM; in assay [12], 55.7 µM; in [19], 64.7 µM; in assay [13] it was 98.7 µM.
